Data reported in patent US9238069B2, “Method of sensitizing cancer cells to the cytotoxic effects of death receptor ligands in cancer treatment” (The United States of America, as represented by the …, priority 2009, dated 2016).

Tests used:
ACHN renal cancer cells = experiment: SRB dose-response assay for synergy with TRAIL (percent growth inhibition); type: cell-based; settings: 4 h presensitization, TRAIL 20 ng/mL, FIG. 11
Excerpt: FIG. 11 depicts the dose-response curves for withanolide E and withanolide S in the presence of TRAIL. The y-axis represents percent growth inhibition for ACHN renal cancer cells. The lines labeled “−TRAIL” are the dose-response curves for withanolide E and withanolide S in the absence of TRAIL. The lines labeled “predicted +TRAIL” is the predicted additive percent growth inhibition resulting from addition of the growth inhibition due to withanolide E and withanolide S plus TRAIL. The lines labeled “Actual +TRAIL” is the actual percent growth inhibition determined by the assay.
This Example illustrates another aspect of the assay. […] Controls were combined on each assay plate and included: SRB background absorbance (no cells), untreated (DMSO-only) cells, TRAIL-only cells, cytotoxicity positive control −TRAIL (sanguinarine hydrochloride; one concentration), and synergy positive control +TRAIL (bortezomib; one conconcentrion plus a dose-response range).
Compound dilutions were prepared in clear test medium and added to cells. […] Dye was resolubilized by addition of 10 mM TRIZMA base solution (30 μL) and resuspended on a rotary shaker for a few minutes before reading the plates for absorbance at 520 nm using a Safire plate reader (Tecan Group Ltd., Männedorf, Switzerland). […]

caspase-8 in ACHN cells = experiment: Western blot of caspase-8 cleavage after sensitizer plus TRAIL; type: cell-based; settings: compound 10 μM, sensitized 4 h, then TRAIL 40 ng/mL, FIG. 5
Experimental: This Example illustrates cleavage of caspase resulting from treatment of cells with anolides in combination with TRAIL. ACHN cells were seeded into 6-well tissue culture plates at […] cells/well in clear test medium and the next day compound was added to a final concentration of 10 μM. Cells were sensitized for 4 h followed by addition of TRAIL to 40 ng/mL final concentration. Cells were harvested in lysis buffer at short intervals after addition of the TRAIL reagent using 165 μL per well. Lysis buffer contained: 50 mM Tris-Cl (pH 8.0), 300 mM NaCl, 5 mM EDTA, 0.5% Triton X-100, 40 μM Z-VAD-FMK, plus one mini-complete protease inhibitor tablet (Roche, Mannheim, Germany) or 100 μL Halt Protease Inhibitor Single-Use Cocktail (Pierce Biotechnology, Inc., Rockford, Ill.) per 6 mL buffer. Lysates were clarified by centrifugation at 4° C. for 15 min at 15,000 rpm and protein content normalized using the bicinchonic acid (BCA) assay (Pierce Biotechnology, Inc.).
Lysates were run under reducing conditions at 20 μg total protein per lane, in NuPAGE 4-12% Bis-Tris gels (1.0 mm×12 well; Invitrogen), using MESS DS running buffer and added antioxidant in the upper chamber. […]
The Western blots determined using the above protocol for withanolide E is depicted in FIG. 5.

Substance	percent growth inhibition in combination with TRAIL versus sensitizer alone or TRAIL alone (synergistic response) (ACHN renal cancer cells)	cleavage of caspase-8 (caspase-8 in ACHN cells)
withanolide E	substantially greater	resulted in the cleavage of caspase-8
withanolide S	substantially greater	–
